According to patent publication US8568699B2, “Soft anticholinergic zwitterions” (priority 2005, dated 2013):
Counter-ions that a name gives are not always drawn. Like-named read-outs stand apart in the source and are kept apart here.

Assays:
[1] = biological target: T1, cloned human muscarinic receptor subtype M2 (Homo sapiens, UniProt P08172); assay: Receptor binding, N-[3H]-methyl-scopolamine, M2
T1 sequence (P08172 1-466): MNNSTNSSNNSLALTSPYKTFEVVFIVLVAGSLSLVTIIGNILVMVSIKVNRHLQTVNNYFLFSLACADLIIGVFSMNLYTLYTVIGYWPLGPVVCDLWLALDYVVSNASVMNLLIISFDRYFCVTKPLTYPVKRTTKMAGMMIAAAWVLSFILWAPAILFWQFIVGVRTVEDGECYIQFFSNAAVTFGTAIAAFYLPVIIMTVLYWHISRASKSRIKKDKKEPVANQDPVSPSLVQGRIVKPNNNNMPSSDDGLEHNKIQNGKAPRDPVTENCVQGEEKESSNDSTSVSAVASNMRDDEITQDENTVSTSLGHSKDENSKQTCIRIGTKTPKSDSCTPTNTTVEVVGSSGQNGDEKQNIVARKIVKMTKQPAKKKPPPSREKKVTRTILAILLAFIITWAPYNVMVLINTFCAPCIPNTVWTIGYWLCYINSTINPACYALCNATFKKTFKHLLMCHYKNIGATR

[2] = biological target: T2, cloned human muscarinic receptor subtype M3 (Homo sapiens, UniProt P20309); assay: Receptor binding, N-[3H]-methyl-scopolamine, M3; conditions: for M3 Hill slope: numbers in parentheses
T2 construct: purchased Applied Cell Science Inc. (Rockville, Md.)

[3] = biological target: T3, cloned human muscarinic receptor subtype M1 (Homo sapiens, UniProt P11229); assay: Receptor binding, N-[3H]-methyl-scopolamine, M1; conditions: numbers in parentheses
T3 sequence (P11229 1-460): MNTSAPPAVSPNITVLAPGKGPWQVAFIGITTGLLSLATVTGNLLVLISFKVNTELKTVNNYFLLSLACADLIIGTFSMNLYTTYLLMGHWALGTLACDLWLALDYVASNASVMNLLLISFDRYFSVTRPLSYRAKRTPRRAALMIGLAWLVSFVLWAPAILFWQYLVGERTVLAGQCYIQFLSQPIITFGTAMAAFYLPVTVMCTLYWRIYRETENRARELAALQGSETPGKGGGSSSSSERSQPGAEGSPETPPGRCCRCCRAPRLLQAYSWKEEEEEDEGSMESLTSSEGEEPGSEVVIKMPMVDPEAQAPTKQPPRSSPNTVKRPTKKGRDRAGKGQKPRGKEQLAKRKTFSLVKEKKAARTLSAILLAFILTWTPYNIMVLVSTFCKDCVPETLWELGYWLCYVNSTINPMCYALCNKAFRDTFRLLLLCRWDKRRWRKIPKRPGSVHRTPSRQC

[4] = biological target: T4, cloned human muscarinic receptor subtype M4 (Homo sapiens, UniProt P08173); assay: Receptor binding, N-[3H]-methyl-scopolamine, M4; conditions: numbers in parentheses
T4 construct: purchased Applied Cell Science Inc. (Rockville, Md.)
T4 sequence (P08173 1-479): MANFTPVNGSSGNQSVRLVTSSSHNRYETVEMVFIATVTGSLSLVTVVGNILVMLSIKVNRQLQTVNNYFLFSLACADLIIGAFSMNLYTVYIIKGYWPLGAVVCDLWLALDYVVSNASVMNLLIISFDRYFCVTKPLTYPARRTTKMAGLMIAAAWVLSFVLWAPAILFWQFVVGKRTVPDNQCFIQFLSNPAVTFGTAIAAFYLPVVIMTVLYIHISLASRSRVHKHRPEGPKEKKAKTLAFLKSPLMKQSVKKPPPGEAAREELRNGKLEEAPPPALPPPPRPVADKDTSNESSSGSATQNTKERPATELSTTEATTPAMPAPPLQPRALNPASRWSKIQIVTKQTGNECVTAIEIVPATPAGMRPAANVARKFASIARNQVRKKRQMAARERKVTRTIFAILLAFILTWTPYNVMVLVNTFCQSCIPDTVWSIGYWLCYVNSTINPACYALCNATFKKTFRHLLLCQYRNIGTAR

[5] = biological target: cloned human muscarinic receptors (M1-M4 subtypes); assay: Receptor binding, values stated across subtypes M1-M4
[6] = tested on: electrically stimulated guinea pig tracheal strips; type: cell-based
[7] = tested on: muscarinic M3 cholinoceptors (guinea pig tracheal rings); type: cell-based
[8] = Table 6, numbers in parentheses
[9] = electrically stimulated guinea pig tracheal strips
[10] = time from washout to 20% recovery of cholinergic responses

T2 sequence (P20309 whole entry): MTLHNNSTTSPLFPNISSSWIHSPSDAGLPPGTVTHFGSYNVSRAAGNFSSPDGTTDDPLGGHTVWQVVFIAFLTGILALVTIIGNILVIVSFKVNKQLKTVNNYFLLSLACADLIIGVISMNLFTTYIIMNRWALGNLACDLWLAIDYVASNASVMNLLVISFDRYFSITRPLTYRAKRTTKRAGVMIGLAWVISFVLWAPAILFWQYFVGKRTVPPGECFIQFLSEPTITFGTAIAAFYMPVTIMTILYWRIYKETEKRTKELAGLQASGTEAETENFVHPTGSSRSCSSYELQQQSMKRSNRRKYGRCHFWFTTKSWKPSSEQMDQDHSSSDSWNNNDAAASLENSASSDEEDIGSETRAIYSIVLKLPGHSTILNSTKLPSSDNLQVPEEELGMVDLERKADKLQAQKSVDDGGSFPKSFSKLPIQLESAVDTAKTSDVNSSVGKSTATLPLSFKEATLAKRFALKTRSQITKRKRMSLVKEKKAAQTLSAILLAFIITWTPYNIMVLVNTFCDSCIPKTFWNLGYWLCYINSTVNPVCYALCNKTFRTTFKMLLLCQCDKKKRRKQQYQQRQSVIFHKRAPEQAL

## CCOC(=O)C[N+]1(C)CC[C@H](OC(=O)[C@](O)(c2ccccc2)C2CCCC2)C1 (mixture of isomers) [Compound (j), (2R,3′S) 3(2-Cyclopentyl-2-phenyl-2-hydroxyacetoxy)-1-(ethoxycarbonylmethyl)-1-methylpyrrolidinium bromide]
[1]; [8]
  M2 Hill slope: (1.27 ± 0.11)
[2]; M3 affinity relative to M2 affinity
  M3/M2 muscarinic-receptor subtype-selectivity: 2.8±0.8 times
[2]; Table 6
  Selectivity M3/M2 (M3/M2 affinity ratio): 2.8 ± 0.8 times
  M3 Hill slope: (1.33 ± 0.16)
[3]; Table 6
  M1 Hill slope: (1.21 ± 0.33)
[4]; Table 6
  M4 Hill slope: (1.15 ± 0.03)
[5]
  pKi (range over M1-M4): 8.2-8.7

## C[N+]1(C)CCC(OC(=O)C(O)(c2ccccc2)C2CCCC2)C1 (mixture of isomers) [glycopyrrolate, glycopyrronium bromide]
[1]; Table 1, numbers in parentheses
  M2 Hill slope: (0.99 ± 0.11)
[1]; [8]
  M2 Hill slope: (0.99 ± 0.11)
[2]; Table 1
  M3 Hill slope: (1.14 ± 0.25)
[2]; Table 6
  M3 Hill slope: (1.14 ± 0.25)
[3]; Table 1
  M1 Hill slope: (1.37 ± 0.20)
[3]; Table 6
  M1 Hill slope: (1.37 ± 0.20)
[4]; Table 1
  M4 Hill slope: (1.02 ± 0.01)
[4]; Table 6
  M4 Hill slope: (1.02 ± 0.01)
[5]
  pKi (range over M1-M4): 8.7-9.9

## CN1[C@@H]2CC[C@H]1C[C@@H](OC(=O)C(CO)c1ccccc1)C2 (stereo partly shown) [Atropine]
[6]
  t1/5 offset: 10 min
  t1/5 onset: 2.5 min

## C[N+]1(CC(=O)[O-])[C@@H]2C[C@@H](OC(=O)C(O)(c3cccs3)c3cccs3)C[C@H]1[C@@H]1O[C@@H]12 (stereo partly drawn) [Compound (aa), 6β,7β-epoxy-3β-hydroxy-8-carboxymethyl-8-methyl-1αH,5αH-tropanium, di-2-thienylglycolate inner salt]
[6]; [9]
  t1/5 onset: 0.9 min
[6]; [10]
  t1/5 offset: 27 min

## CCOC(=O)C[N+]1(C)[C@@H]2C[C@@H](OC(=O)C(O)(c3cccs3)c3cccs3)C[C@H]1[C@@H]1O[C@@H]12 (stereo partly drawn) [Compound (w), 6β,7β-epoxy-3β-hydroxy-8-ethoxycarbonylmethyl-8-methyl-1αH,5αH-tropanium bromide, di-2-thienylglycolate]
[7]; antagonism against carbachol, isolated guinea pig tracheal rings, four animals
  pA2: 8.82
[6]; [9]
  t1/5 onset: 0.6 min
[6]; [10]
  t1/5 offset: 60 min

## CC(C)[N+]1(C)[C@@H]2CC[C@H]1CC(OC(=O)C(CO)c1ccccc1)C2.[Br-] (stereo partly shown) [Ipratropium Br, ipratropium bromide]
[7]
  pA2: 9.18
[6]
  t1/5 onset: 3.0 min

## C[N+]1(C)[C@@H]2C[C@@H](OC(=O)C(O)(c3cccs3)c3cccs3)C[C@H]1[C@@H]1O[C@@H]12 [Tiotropium]
[6]
  t1/5 offset: >360 min
  t1/5 onset: 8.0 min

## C[N+]1(C)[C@@H]2C[C@@H](OC(=O)[C@H](CO)c3ccccc3)C[C@H]1[C@@H]1O[C@@H]12 [scopolamine methyl bromide, scopolamine methylbromide]
[1]
  M2 Hill slope: (1.02 ± 0.02)
